# Target: T1, MerTK (Homo sapiens, UniProt Q12866)
# T1 construct: endogenous in cells; host or cells: Jurkat cells
# T1 sequence (Q12866 21-999): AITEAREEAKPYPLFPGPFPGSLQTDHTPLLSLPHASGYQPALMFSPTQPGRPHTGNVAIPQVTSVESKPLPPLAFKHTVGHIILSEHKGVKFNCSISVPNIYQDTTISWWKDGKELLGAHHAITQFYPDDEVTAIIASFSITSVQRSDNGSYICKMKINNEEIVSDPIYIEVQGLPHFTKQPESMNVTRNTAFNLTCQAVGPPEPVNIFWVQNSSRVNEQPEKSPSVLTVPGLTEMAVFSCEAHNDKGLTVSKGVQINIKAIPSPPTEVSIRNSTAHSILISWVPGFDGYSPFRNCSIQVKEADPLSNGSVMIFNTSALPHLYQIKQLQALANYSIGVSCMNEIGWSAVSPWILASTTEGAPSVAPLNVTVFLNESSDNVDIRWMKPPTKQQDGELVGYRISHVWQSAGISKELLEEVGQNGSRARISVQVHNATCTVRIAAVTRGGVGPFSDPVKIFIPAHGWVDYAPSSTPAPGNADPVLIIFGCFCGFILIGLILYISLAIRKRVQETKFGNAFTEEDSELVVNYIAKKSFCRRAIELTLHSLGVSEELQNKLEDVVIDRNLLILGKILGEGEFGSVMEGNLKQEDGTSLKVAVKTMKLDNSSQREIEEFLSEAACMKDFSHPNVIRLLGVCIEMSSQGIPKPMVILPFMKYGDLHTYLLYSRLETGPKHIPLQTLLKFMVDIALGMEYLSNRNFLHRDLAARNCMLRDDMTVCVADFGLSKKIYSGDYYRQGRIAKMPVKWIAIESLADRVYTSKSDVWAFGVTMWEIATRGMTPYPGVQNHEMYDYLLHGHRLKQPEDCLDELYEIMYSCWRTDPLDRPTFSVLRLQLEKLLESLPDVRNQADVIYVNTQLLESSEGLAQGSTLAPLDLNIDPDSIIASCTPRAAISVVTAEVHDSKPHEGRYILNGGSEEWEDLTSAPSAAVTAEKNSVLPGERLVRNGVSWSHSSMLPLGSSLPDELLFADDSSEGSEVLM
# Assay: MerTk degradation in Jurkat cells (Western blot)
# Assay type: cell-based
# Conditions: Jurkat, 4 h, 0.001-1 μM, 4 hour-incubation at 37° C., read-out: Jurkat Max % MerTK Degradation
# Method in brief: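 Jurkat cells treated 4 h at 37 °C with compound at 0.001-1 μM final. RIPA lysates quantified by BCA, then MerTK probed by Western blot against actin loading control with IR-dye secondaries and Odyssey imaging.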
row,SMILES,Dmax [%]
1,C[C@H](Nc1ncc2c(-c3ccc(CN4CCN(CCCOCCCc5ccc6c(c5)n(C)c(=O)n6C5CCC(=O)NC5=O)CC4)cc3)cn([C@H]3CC[C@H](O)CC3)c2n1)C(F)F (some centres unmarked) [I-216],> 50
2,"CN1CCN(Cc2ccc(-c3ccc(CO[C@H]4CCC[C@@H]4NC(=O)c4cc(-c5cnn(CCOCCCc6ccc7c(c6)n(C)c(=O)n7C6CCC(=O)NC6=O)c5)cnc4N)cc3)cc2)CC1 (stereo partly drawn) [I-217, 2-Amino-5-[1-(2-[3-[1-(2,6-dioxopiperidin-3-yl)-3-methyl-2-oxo-1,3-benzodiazol-5-yl]propoxy]ethyl)pyrazol-4-yl]-N-[(1S,2S)-2-([4-[(4-methylpiperazin-1-yl)methyl]-[1,1-biphenyl]-4-yl]methoxy)cyclopentyl]pyridine-3-carboxamide]",20 to 50
3,"CN1CCN(Cc2ccc(-c3ccc(CO[C@H]4CCC[C@@H]4NC(=O)c4cc(-c5cnn(CCOCCCc6cccc7c6n(C)c(=O)n7C6CCC(=O)NC6=O)c5)cnc4N)cc3)cc2)CC1 (stereo partly drawn) [I-218, 2-Amino-5-[1-(2-[3-[1-(2,6-dioxopiperidin-3-yl)-3-methyl-2-oxo-1,3-benzodiazol-4-yl]propoxy]ethyl)pyrazol-4-yl]-N-[(1S,2S)-2-([4-[(4-methylpiperazin-1-yl)methyl]-[1,1-biphenyl]-4-yl]methoxy)cyclopentyl]pyridine-3-carboxamide]",< 20
4,"CCC[C@H](C)Nc1ncc2c(n1)n([C@H]1CC[C@H](O)CC1)cc2[C@H]1CC[C@@H](CN2CCN(CCCO[C@H]3CCN(Cc4ccc5c(c4)n(C)c(=O)n5C4CCC(=O)NC4=O)C3)CC2)CC1 (stereo partly drawn) [I-220, 3-(3-methyl-2-oxo-5-[[(3S)-3-[3-(4-[[4-[2-[(2S)-pentan-2-ylamino]-7-[trans-4-hydroxycyclohexyl]pyrrolo[2,3-d]pyrimidin-5-yl]cyclohexyl]methyl]piperazin-1-y1)propoxy]pyrrolidin-1-yl]methyl]-1,3-benzodiazol-1-y1)piperidine-2,6-dione]",> 50
5,"CCC[C@@H](C)Nc1ncc2c(n1)n([C@H]1CC[C@H](O)CC1)cc2[C@H]1CC[C@H](CN2CCN(CCCO[C@H]3CCN(Cc4ccc5c(c4)n(C)c(=O)n5C4CCC(=O)NC4=O)C3)CC2)CC1 (stereo partly drawn) [I-221, trans-3-(3-methyl-2-oxo-5-[[(3R)-3-[3-(4-[[(1r,4r)-4-[2-[(2S)-pentan-2-ylamino]-7-[4-hydroxycyclohexyl]pyrrolo[2,3-d]pyrimidin-5-yl]cyclohexyl]methyl]piperazin-1-y1)propoxy]pyrrolidin-1-yl]methyl]-1,3-benzodiazol-1-yl)piperidine-2,6-dione]",20 to 50

# Continued, values first:
row,Dmax [%],SMILES
1,> 50,C[C@@H](Nc1ncc2c(-c3ccc(CN4CCN(CCCOCCCc5ccc6c(c5)n(C)c(=O)n6C5CCC(=O)NC5=O)CC4)cc3)cn([C@H]3CC[C@H](O)CC3)c2n1)C(F)F (some centres unmarked) [I-215]
2,> 50,"CCC[C@@H](C)Nc1ncc2c(n1)n([C@H]1CC[C@H](O)CC1)cc2[C@H]1CC[C@@H](CN2CCN(CCCO[C@H]3CCN(Cc4ccc5c(c4)n(C)c(=O)n5C4CCC(=O)NC4=O)C3)CC2)CC1 (stereo partly drawn) [I-219, 3-(3-methyl-2-oxo-5-[[(3S)-3-[3-(4-[[trans-4-[2-[(2S)-pentan-2-ylamino]-7-[trans-4-hydroxycyclohexyl]pyrrolo[2,3-d]pyrimidin-5-yl]cyclohexyl]methyl]piperazin-1-y1)propoxy]pyrrolidin-1-yl]methyl]-1,3-benzodiazol-1-yl)piperidine-2,6-dione; tris(formic acid)]"
3,> 50,CCC[C@H](C)Nc1ncc2c(n1)n([C@H]1CC[C@H](O)CC1)cc2[C@H]1CC[C@@H](CN2CCN(CCCOC3CN(Cc4ccc5c(c4)n(C)c(=O)n5C4CCC(=O)NC4=O)C3)CC2)CC1 (some centres unmarked) [I-222]
